The values that follow come from patent publication US12337037B2, “Taxol conjugate compounds, pharmaceutical compositions comprising the same, and methods for their use” (N1 Life, Inc, priority 2021, dated 2025).

In one experiment the test system is Hep G2 cells. The experiment in a line: CCK-8 cytotoxicity / anti-proliferation assay, Hep G2. Format: cell-based. As to conditions: 2000 nM. The method, then:
Cytotoxicity Assay—CCK8 Cancer Cells
The CCK-8 assay was applied to study the cytotoxicity of the peptide drug conjugates and their inhibition of proliferation of cancer cells. First, 2˜10×10^3 cells (depending on the rate of growth of different cell lines) with 100 μL, DMEM media were seeded in normal culture medium into each well of a 96-well plate. The cells were then cultured overnight at 37° C. with 4˜5% CO2. Different doses (4000, 2000, 1000, 500 nM for Hep3B, Hep G2 and MCF7/MBA-MD-231; 1000, 333.3, 100.0, 33.33, 3.333, 1.000, 0.333 nM for MCF7/ADR, 22Rv1, CNE1, HCT116, DLD-1) of Taxol and peptide drugs were added. After 48˜72 hour incubation, CCK-8 solution was added to each well. The cells were then incubated at 37° C. for 4 hours. The optical density was measured at 450/650 nm using a multiscan spectrometer (PerkinElmer's EnSpire Multilabel Plate Reader). The optical density is linearly proportional to the number of living cells in the sample: […]

The subject of experiment [1] is human gastric cancer (NUGC-4) cells. The experiment in a line: Efficacy against gastric cancer. Type of experiment: in vivo, mice. As to conditions: NUGC-4 model; 9.6 mg/kg QD5 (days 0, 5, 10). The procedure:
The fluorescence area of the tumor was measured over the course of the study (FIG. 13). After approximately Day 15 in the mice administered PBS, the formation of bloody ascites blocked the fluorescence reading. […] FIG. 14 is a graph comparing the fluorescence area on Day 21 of the study of the mice administered vehicle and the mice administered Compound 3. FIG. 15 is a graph comparing the tumor weight of the mice administered vehicle and the mice administered Compound 3 on Day 21.

The subject of experiment [2] is human pancreatic cancer (BXPC-3) cells. The experiment can be described thus: Efficacy against pancreatic cancer. The conditions noted are these: BXPC-3 model; 9.6 mg/kg QD5 (days 0, 5, 10); vs vehicle. Type of experiment: in vivo, mice. The procedure: Following the procedure described in Biological Example 5, mice were injected with human pancreatic cancer (BXPC-3) cells and treated with Compound 3 (9.6 mg/kg) QD5 (dosing on days 0, 5, and 10) to study the efficacy of Compound 3. […] FIG. 11 is a graph comparing the fluorescence area on Day 17 of the study of the mice administered vehicle and the mice administered Compound 3. FIG. 12 is a graph comparing the tumor weight of the mice administered vehicle and the mice administered Compound 3 on Day 17.

Turning to `CC(=O)N[C@@H](CSSCCCC(=O)OC(C(=O)O[C@H]1C[C@@]2(O)[C@@H](OC(=O)c3ccccc3)[C@@H]3[C@]4(OC(C)=O)CO[C@@H]4C[C@H](O)[C@@]3(C)C(=O)[C@H](OC(C)=O)C(=C1C)C2(C)C)[C@@H](NC(=O)c1ccccc1)c1ccccc1)C(=O)N[C@H](CCCNC(=N)N)C(=O)N[C@H](CCCNC(=N)N)C(=O)N[C@H](CCCNC(=N)N)C(=O)N[C@H](CCCNC(=N)N)C(=O)N[C@H](CCCNC(=N)N)C(=O)N[C@H](CCCNC(=N)N)C(=O)N[C@H](CCCNC(=N)N)C(=O)N[C@H](CCCNC(=N)N)C(N)=O` (stereo partly drawn) [Compound 3, Ac-L-Cysteine (paclitaxel-4-mercaptobutanoate)-D-Arginine8-NH2], in the experiment on Hep G2 cells, the “anti-proliferation effect compared to Taxol and Compound 5 (FIG. 2B)” value was “greater than the anti-proliferation effect of Taxol and Compound 5”. For the same compound, the “fluorescence area of the tumor over the course of the study (FIG. 13)” value in experiment [1] is given as “fluorescence decreased over the course of the study”. In addition, the “fluorescence area of the tumor over the course of the study (FIG. 10)” value in experiment [2] is reported as “fluorescence area increased in the vehicle-administered mice to a greater degree over the course of the study compared to the Compound 3-administered mice”.
